Experimental data from patent US11180462B2, “Microbiocidal oxadiazole derivatives” (SYNGENTA PARTICIPATIONS AG, priority 2015, dated 2021).

Experiments:
[1] = test system: Puccinia recondita f. Sp. Tritici; assay: Fungicidal activity against Puccinia recondita f. sp. tritici / wheat / leaf disc preventative (brown rust); format: in vivo; settings: foliar, 200 ppm in the applied formulation, wheat leaf segments, preventative, compared to untreated control leaf disks, read-out: disease control
In short: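 200 ppm spray on wheat cv. Kanzler leaf segments; spore inoculation +1 day; 19° C., 75% rh, 12 h/12 h light cycle; single rating of % control vs untreated at 7 to 9 days.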

[2] = test system: Puccinia recondita f. Sp. Tritici; assay: Fungicidal activity against Puccinia recondita f. sp. tritici / wheat / leaf disc curative (brown rust); format: in vivo; settings: foliar, 24 h, 200 ppm in the applied formulation, wheat leaf segments, curative (applied 1 day after inoculation), compared to untreated control leaf disks, read-out: disease control
In short: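 Wheat cv. Kanzler leaf segments on agar, inoculated with rust spore suspension, kept dark at 19° C and 75% RH; formulated compound sprayed 1 day post-inoculation. Incubated 19° C, 75% RH, 12 h light/12 h dark; percent disease control vs untreated scored 6 to 8 days after application.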

Phakopsora Pachyrhizi = assay: Fungicidal activity against Phakopsora pachyrhizi / soybean / leaf disc preventative (Asian soybean rust); format: in vivo; settings: foliar, 200 ppm in the applied formulation, soybean leaf disks, compared to untreated control leaf disks, read-out: disease control
In short: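 Scored 12 to 14 days post-application as percent control relative to untreated check discs, rust spores were sprayed under the disc one day after compound treatment. Incubation: 20°C, 75% rh, first 24–36 h in darkness, then 12 h daily light; discs kept on water agar.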

[3] = test system: Glomerella lagenarium (Colletotrichum lagenarium); assay: Fungicidal activity against Glomerella lagenarium (Colletotrichum lagenarium) liquid culture / cucumber / preventative (anthracnose); format: cell-based; settings: Colletotrichum orbiculare; 20 ppm in the applied formulation; liquid culture (PDB), growth inhibition measured photometrically after 3 to 4 days; compared to untreated control; read-out: disease control
In short: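 Percent activity against the untreated check was derived from photometric growth measurements made 2 to 7 days after conidia in potato dextrose broth were combined with compound at 20 ppm. Cultures were kept dark at 24 °C and 96% humidity.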

CCC(C)C(=O)N(Cc1ccc(-c2noc(C(F)(F)F)n2)cc1)C1CC1 (centres unmarked) [Compound 1.126, N-cyclopropyl-2-methyl-N-[[4-[5-(trifluoromethyl)-1,2,4-oxadiazol-3-yl]phenyl]methyl]-butanamide]
≥ 80%: pest or weed control at 200 ppm [1] | pest or weed control at 200 ppm [2] | pest or weed control at 200 ppm (Phakopsora Pachyrhizi) | inhibition of growth at 20 ppm [3]

O=C(C1CC1(F)F)N(O)Cc1ccc(-c2noc(C(F)(F)F)n2)cc1 (centres unmarked) [Compound 1.753, 2,2-difluoroN-hydroxy-N-[[4-[5-(trifluoromethyl)-1,2,4-oxadiazol-3-yl]phenyl]methyl]-cyclopropane-carboxamide]
≥ 80%: pest or weed control at 200 ppm [1] | pest or weed control at 200 ppm [2] | pest or weed control at 200 ppm (Phakopsora Pachyrhizi) | inhibition of growth at 20 ppm [3]

CC1(C(=O)N(Cc2ccc(-c3noc(C(F)(F)F)n3)cc2)C2CC2)CC1 [Compound 1.118, N-cyclopropyl-1-methyl-N-[[4-[5-(trifluoromethyl)-1,2,4-oxadiazol-3-yl]phenyl]methyl]-cyclopropane-carboxamide]
≥ 80%: pest or weed control at 200 ppm [1] | pest or weed control at 200 ppm [2] | pest or weed control at 200 ppm (Phakopsora Pachyrhizi) | inhibition of growth at 20 ppm [3]

O=C(C1CSC1)N(Cc1ccc(-c2noc(C(F)(F)F)n2)cc1)CC1CC1 [Compound 1.216, N-(cyclopropylmethyl)-N-[[4-[5-(trifluoromethyl)-1,2,4-oxadiazol-3-yl]phenyl]methyl]-thietane-3-carboxamide]
≥ 80%: pest or weed control at 200 ppm [1] | pest or weed control at 200 ppm [2] | pest or weed control at 200 ppm (Phakopsora Pachyrhizi) | inhibition of growth at 20 ppm [3]

CCN(Cc1ccc(-c2noc(C(F)(F)F)n2)cc1)C(=O)CCCOC [Compound 1.507, N-ethyl-4-methoxy-N-[[4-[5-(trifluoromethyl)-1,2,4-oxadiazol-3-yl]phenyl]methyl]-butanamide]
≥ 80%: pest or weed control at 200 ppm [1] | pest or weed control at 200 ppm [2] | pest or weed control at 200 ppm (Phakopsora Pachyrhizi) | inhibition of growth at 20 ppm [3]

CON(Cc1ccc(-c2noc(C(F)(F)F)n2)cc1)C(C)=O [Compound 1.1, N-methoxy-N-[[4-[5-(trifluoromethyl)-1,2,4-Oxadiazol-3-yl]Phenyl]Methyl]-Acetamide]
≥ 80%: pest or weed control at 200 ppm [1] | pest or weed control at 200 ppm [2] | pest or weed control at 200 ppm (Phakopsora Pachyrhizi) | inhibition of growth at 20 ppm [3]

CCCC(=O)N(Cc1ccc(-c2noc(C(F)(F)F)n2)cc1)OC [Compound 1.24, N-methoxy-N-[[4-[5-(trifluoromethyl)-1,2,4-oxadiazol-3-yl]phenyl]methyl]-butanamide]
≥ 80%: pest or weed control at 200 ppm [1] | pest or weed control at 200 ppm [2] | pest or weed control at 200 ppm (Phakopsora Pachyrhizi) | inhibition of growth at 20 ppm [3]

COC(C)C(=O)N(Cc1ccc(-c2noc(C(F)(F)F)n2)cc1)CC(F)(F)F (centres unmarked) [Compound 1.703, 2-methoxy-N-(2,2,2-trifluoroethyl)-N-[[4-[5-(trifluoromethyl)-1,2,4-oxadiazol-3-yl]phenyl]methyl]-propanamide]
≥ 80%: pest or weed control at 200 ppm [1] | pest or weed control at 200 ppm [2] | pest or weed control at 200 ppm (Phakopsora Pachyrhizi) | inhibition of growth at 20 ppm [3]

C#CCN(Cc1ccc(-c2noc(C(F)(F)F)n2)cc1)C(=O)C1(C)COC1 [Compound 1.192, 3-methyl-N-prop-2-ynyl-N-[[4-[5-(trifluoromethyl)-1,2,4-oxadiazol-3-yl]phenyl]methyl]-oxetane-3-carboxamide]
≥ 80%: pest or weed control at 200 ppm [1] | pest or weed control at 200 ppm [2] | pest or weed control at 200 ppm (Phakopsora Pachyrhizi) | inhibition of growth at 20 ppm [3]

CCN(Cc1ccc(-c2noc(C(F)(F)F)n2)cc1)C(=O)CCOC [Compound 1.496, N-ethyl-3-methoxy-N-[[4-[5-(trifluoromethyl)-1,2,4-oxadiazol-3-yl]phenyl]methyl]-propanamide]
≥ 80%: pest or weed control at 200 ppm [1] | pest or weed control at 200 ppm [2] | pest or weed control at 200 ppm (Phakopsora Pachyrhizi) | inhibition of growth at 20 ppm [3]

CON(Cc1c(F)cc(-c2noc(C(F)(F)F)n2)cc1F)C(=O)C1CCCO1 (centres unmarked) [Compound 1.597, N-[[2,6-difluoro-4-[5-(trifluoromethyl)-1,2,4-oxadiazol-3-yl]phenyl]methyl)-N-methoxy-tetrahydrofuran-2-carboxamide]
≥ 80%: pest or weed control at 200 ppm [1] | pest or weed control at 200 ppm [2] | pest or weed control at 200 ppm (Phakopsora Pachyrhizi) | inhibition of growth at 20 ppm [3]

CCCOC(=O)N(Cc1ccc(-c2noc(C(F)(F)F)n2)cc1)OC [Compound 2.4, propyl N-methoxy-N-[[4-[5-(trifluoromethyl)-1,2,4-oxadiazol-3-yl]phenyl]methyl]-carbamate]
≥ 80%: pest or weed control at 200 ppm [1] | pest or weed control at 200 ppm [2] | pest or weed control at 200 ppm (Phakopsora Pachyrhizi) | inhibition of growth at 20 ppm [3]

COCCC(=O)ON(Cc1ccc(-c2noc(C(F)(F)F)n2)cc1)C(=O)CCOC [Compound 1.759, [3-methoxy-propanoyl-[[4-[5-(trifluoromethyl)-1,2,4-oxadiazol-3-yl]phenyl]methyl]-amino] 3-methoxypropanoate]
≥ 80%: pest or weed control at 200 ppm [1] | pest or weed control at 200 ppm [2] | pest or weed control at 200 ppm (Phakopsora Pachyrhizi) | inhibition of growth at 20 ppm [3]

C=CCN(Cc1ccc(-c2noc(C(F)(F)F)n2)cc1)C(=O)C(C)CC (centres unmarked) [Compound 1.486, N-allyl-2-methyl-N-[[4-[5-(trifluoromethyl)-1,2,4-oxadiazol-3-yl]phenyl]methyl]-butanamide]
≥ 80%: pest or weed control at 200 ppm [1] | pest or weed control at 200 ppm [2] | pest or weed control at 200 ppm (Phakopsora Pachyrhizi) | inhibition of growth at 20 ppm [3]

CCCN(Cc1ccc(-c2noc(C(F)(F)F)n2)cc1)C(=O)COC [Compound 1.575, 2-methoxy-N-propyl-N-[[4-[5-(trifluoromethyl)-1,2,4-oxadiazol-3-yl]phenyl]methyl]-acetamide]
≥ 80%: pest or weed control at 200 ppm [1] | pest or weed control at 200 ppm [2] | pest or weed control at 200 ppm (Phakopsora Pachyrhizi) | inhibition of growth at 20 ppm [3]

C#CCN(Cc1ccc(-c2noc(C(F)(F)F)n2)cc1)C(=O)Cc1cccnc1 [Compound 1.170, N-prop-2-ynyl-2-(3-pyridyl)-N-[[4-[5-(trifluoromethyl)-1,2,4-oxadiazol-3-yl]phenyl]methyl]-acetamide]
≥ 80%: pest or weed control at 200 ppm [1] | pest or weed control at 200 ppm [2] | pest or weed control at 200 ppm (Phakopsora Pachyrhizi) | inhibition of growth at 20 ppm [3]

CON(Cc1ccc(-c2noc(C(F)(F)F)n2)cc1)C(=O)CC(C)(C)C [Compound 1.41, N-methoxy-3,3-dimethyl-N-[[4-[5-(trifluoromethyl)-1,2,4-oxadiazol-3-yl]phenyl]methyl]-butanamide]
≥ 80%: pest or weed control at 200 ppm [1] | pest or weed control at 200 ppm [2] | pest or weed control at 200 ppm (Phakopsora Pachyrhizi) | inhibition of growth at 20 ppm [3]

C#CCOC(=O)NC(C(=O)N(Cc1ccc(-c2noc(C(F)(F)F)n2)cc1)OC)C(C)C (centres unmarked) [Compound 1.77, prop-2-ynyl N-[1-[methoxy-[[4-[5-(trifluoromethyl)-1,2,4-oxadiazol-3-yl]phenyl]methyl]carbamoyl]-2-methyl-propyl]carbamate]
≥ 80%: pest or weed control at 200 ppm [1] | pest or weed control at 200 ppm [2] | pest or weed control at 200 ppm (Phakopsora Pachyrhizi) | inhibition of growth at 20 ppm [3]

O=C(c1ccccc1)N(Cc1ccc(-c2noc(C(F)(F)F)n2)cc1)C1CC1 [Compound 1.150, N-cyclopropyl-N-[[4-[5-(trifluoromethyl)-1,2,4-oxadiazol-3-yl]phenyl]methyl]-benzamide]
≥ 80%: pest or weed control at 200 ppm [1] | pest or weed control at 200 ppm [2] | pest or weed control at 200 ppm (Phakopsora Pachyrhizi) | inhibition of growth at 20 ppm [3]

CON(Cc1ccc(-c2noc(C(F)(F)F)n2)cc1)C(=O)C1CSC1 [Compound 1.30, N-methoxy-N-[[4-[5-(trifluoromethyl)-1,2,4-oxadiazol-3-yl]phenyl]methyl]-thietane-3-carboxamide]
≥ 80%: pest or weed control at 200 ppm [1] | pest or weed control at 200 ppm [2] | pest or weed control at 200 ppm (Phakopsora Pachyrhizi) | inhibition of growth at 20 ppm [3]
